Results taken from US20230330093A1, “APPLICATION OF NITROGEN-CONTAINING SATURATED HETEROCYCLIC COMPOUND” (SHANGHAI PHARMACEUTICALS HOLDING CO., LTD., priority 2020, published 2023).
Values joined by “and” are separate entries in the source; they are usually repeats but may differ in a detail not shown here. Identical values can stand only once. “Also recorded” adds a separate entry of the source.

Experiments:
[1] = test system: rhesus monkeys with spontaneous chronic kidney disease; experiment: Effect on heart function, cardiac Doppler ultrasound, 8-week administration; conditions: for Ea / LVEF: Valsartan group (n = 3)
Procedure: In the trial, animals were brought in three stages.
This was performed once before administration and once after administration. UACR=MALB/Cr—U. • Blood pressure: the blood pressure was checked after anesthesia, including systolic blood pressure (SBP), diastolic blood pressure (DBP), mean blood pressure (MBP) and heart rate (HR). This was performed once before administration and once at weeks 4 and 8 respectively after administration. • Cardiac GE Doppler ultrasound: historical cardiac ultrasonography once within 1 year (selected animals), once before administration (within 30 days (D-30) of the baseline period), and once at week 8 after administration.
Anesthesia method: 15 mg/kg of ketamine hydrochloride was used for intramuscular injection anesthesia. According to the animal anesthesia state, the supplemental anesthesia will be performed after judgment by veterinarian. Each supplemental anesthesia dose was ½ of the initial dose.
Detection method: The animal was placed in the left decubitus position, and the 6S-RS probe (frequency 2.7-8.0 MHz) was used for image acquisition.
Analysis method: After the image was collected and saved, the supporting analysis workstation EchoPAC Software was used to repeatedly detect various indicators of systolic and diastolic functions in 3 consecutive cardiac cycles.
Testing indicators and ultrasonic technology: see Table 9 below.
Testing equipment: GE Vivid S5 color Doppler ultrasound diagnostic system.

[2] = test system: rhesus monkeys with spontaneous chronic kidney disease; experiment: Effect on glomerular filtration rate eGFRcreat-cys, 8-week administration; type: in vivo, Macaca mulatta (Rhesus Macaque); conditions: for eGFRcreat-cys / eGFRcreat-cys Change value (8 weeks): Valsartan group (n = 3); for eGFRcreat-cys Change value (8 weeks): 8 weeks − Baseline
Procedure: CKD-EPI rating […]-G3b, glomerular filtration rate eGFR: 30 59 ml/min/1.73 m^2; or moderate to severe increase in proteinuria (A2-A3): urine albumin/creatinine ratio (UACR)>15 mg/g-350 mg/g (4-6 hour urine collection), vs. age-matched control group 3±2 mg/g. In the trial, animals were brought in three stages. […] Glomerular filtration rate […]: creatinine (Cr-P), urea nitrogen (BUN) and cystatin (CysC) were detected, and the eGFR value was obtained by calculation. It was performed once before the administration and once every two weeks after the administration. […] ELISA kit was used for NT-proBNP test. [table] Selected […] in each group: 30 59 ml/min/1.73 m^2. The changes in the glomerular filtration rate of W8 and baseline were analyzed.

[3] = test system: rhesus monkeys with spontaneous chronic kidney disease (CKD); experiment: Effect on UACR (proteinuria), 8-week oral administration; type: in vivo, Macaca mulatta (Rhesus Macaque); conditions: for MALB: Valsartan group 2.67 mg/kg/time oral (qd wk 1-2, bid wk 3-8); for MALB / UACR change rate / UACR: per animal + Mean ± SD; for UACR change rate: 8 weeks vs baseline, negative = decrease
Procedure: CKD-EPI rating […]-G3b, glomerular filtration rate eGFR: 30 59 ml/min/1.73 m^2; or moderate to severe increase in proteinuria (A2-A3): urine albumin/creatinine ratio (UACR)>15 mg/g-350 mg/g (4-6 hour urine collection), vs. age-matched control group 3±2 mg/g. In the trial, animals were brought in three stages. […] ELISA kit was used for NT-proBNP test. [table]

[4] = Baseline, single animals and Mean ± SD

## CCCCC(=O)N(Cc1ccc(-c2ccccc2-c2nnn[nH]2)cc1)[C@H](C(=O)O)C(C)C [Valsartan, reference compound]
[1]; 8 weeks
  Ea: 7.01 cm/s and 7.17 cm/s and 4.61 cm/s
  LVEF: 64.09% and 57.98% and 61.97%
[1]; Baseline
  Ea: 4.16 cm/s and 5.14 cm/s and 3.44 cm/s
[1]; [4]
  LVEF: 64.02% and 58.75% and 59.26%
[1]; each dose group, 8-week administration
  adverse reaction in the systolic and diastolic function (echocardiography): no obvious adverse reaction
[2]; Valsartan group 2.67 mg/kg/time oral (qd wk 1-2, bid wk 3-8), Baseline, per animal + Mean ± SD
  eGFRcreat-cy, Change value: 0 ml/min/1.73 m^2
[2]; Valsartan group 2.67 mg/kg/time oral (qd wk 1-2, bid wk 3-8), Baseline, per animal + Mean ± SD, mean
  eGFRcreat-cy, Change value: 0 ± 0 ml/min/1.73 m^2
[2]; Valsartan group 2.67 mg/kg/time oral, 2 weeks vs baseline, per animal + Mean ± SD
  eGFRcreat-cy, Change value: 4 ml/min/1.73 m^2 (2×) and 6 ml/min/1.73 m^2
[2]; Valsartan group 2.67 mg/kg/time oral, 2 weeks vs baseline, per animal + Mean ± SD, mean
  eGFRcreat-cy, Change value: 5 ± 1 ml/min/1.73 m^2
[2]; Valsartan group 2.67 mg/kg/time oral, 4 weeks vs baseline, per animal + Mean ± SD
  eGFRcreat-cy, Change value: 1 ml/min/1.73 m^2 and 7 ml/min/1.73 m^2 and 6 ml/min/1.73 m^2
[2]; Valsartan group 2.67 mg/kg/time oral, 4 weeks vs baseline, per animal + Mean ± SD, mean
  eGFRcreat-cy, Change value: 5 ± 3 ml/min/1.73 m^2
[2]; Valsartan group 2.67 mg/kg/time oral, 6 weeks vs baseline, per animal + Mean ± SD
  eGFRcreat-cy, Change value: 1 ml/min/1.73 m^2 and 5 ml/min/1.73 m^2 and 7 ml/min/1.73 m^2
[2]; Valsartan group 2.67 mg/kg/time oral, 6 weeks vs baseline, per animal + Mean ± SD, mean
  eGFRcreat-cy, Change value: 4 ± 3 ml/min/1.73 m^2
[2]; Valsartan group 2.67 mg/kg/time oral, 8 weeks vs baseline, per animal + Mean ± SD (p<0.01 vs placebo)
  eGFRcreat-cy, Change value: 6±2 ml/min/1.73 m^2 and 5 ml/min/1.73 m^2 and 8 ml/min/1.73 m^2
[2]; 2 weeks
  eGFRcreat-cys: 58 ml/min/1.73 m^2 and 54 ml/min/1.73 m^2 and 46 ml/min/1.73 m^2
[2]; 2 weeks, group mean
  eGFRcreat-cys: 53 ± 6 ml/min/1.73 m^2
[2]; 4 weeks
  eGFRcreat-cys: 55 ml/min/1.73 m^2 and 57 ml/min/1.73 m^2 and 46 ml/min/1.73 m^2
[2]; 4 weeks, group mean
  eGFRcreat-cys: 53 ± 6 ml/min/1.73 m^2
[2]; 6 weeks
  eGFRcreat-cys: 55 ml/min/1.73 m^2 and 47 ml/min/1.73 m^2
[2]; 6 weeks, group mean
  eGFRcreat-cys: 53 ± 5 ml/min/1.73 m^2
[2]; 8 weeks
  eGFRcreat-cys: 60 ml/min/1.73 m^2 and 59 ml/min/1.73 m^2 and 46 ml/min/1.73 m^2
[2]
  eGFRcreat-cys Change value (8 weeks): 5 ml/min/1.73 m^2 and 8 ml/min/1.73 m^2
[2]; group mean
  eGFRcreat-cys Change value (8 weeks): 6 ± 2 ml/min/1.73 m^2
[2]; 8 weeks, group mean
  eGFRcreat-cys: 55 ± 8 ml/min/1.73 m^2
[2]; [4]
  eGFRcreat-cys: 55 ml/min/1.73 m^2 and 50 ml/min/1.73 m^2 and 40 ml/min/1.73 m^2
[2]; Baseline, single animals and Mean ± SD, group mean
  eGFRcreat-cys: 48 ± 7 ml/min/1.73 m^2
[3]; 8 weeks
  MALB: 6.2 mg/L and 39.9 mg/L and 19.5 mg/L
[3]; 8 weeks, mean
  MALB: 21.9 ± 17.0 mg/L
[3]; Baseline
  MALB: 7.1 mg/L and 60.0 mg/L and 25.8 mg/L
[3]; Baseline, mean
  MALB: 31.0 ± 26.8 mg/L
[3]; Valsartan group 2.67 mg/kg/time oral
  UACR change rate: -41.10% and -69.59% and 35.88%
[3]; Valsartan group 2.67 mg/kg/time oral, mean
  UACR change rate: −24.93 ± 54.56%
[3]; Valsartan group 2.67 mg/kg/time oral, 8 weeks, per animal
  UACR Benefit assessment: both showed benefit; also recorded: the benefit was not obvious
[3]; Valsartan group 2.67 mg/kg/time oral, 8 weeks
  UACR: 22.0 mg/g and 19.3 mg/g and 20.4 mg/g
[3]; Valsartan group 2.67 mg/kg/time oral, 8 weeks, mean
  UACR: 20.6 ± 1.3 mg/g
[3]; Valsartan group 2.67 mg/kg/time oral, Baseline
  UACR: 15 mg/g and 37.3 mg/g and 63.6 mg/g and 15.0 mg/g and 38.7 ± 24.3 mg/g
[3]; Valsartan group, 2 animals (No. 2091, No. 4861)
  UACR of W8 decreased by, compared with the baseline: 40%-70%
[3]; Valsartan group, one animal with baseline UACR 15 mg/g
  W8 UACR after administration: 20.4%
